Measurements published in ChEMBL document CHEMBL1201862, “PubChem BioAssay data set” (2004).
Where a name gives a salt, the structure may show the parent alone.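 Interpolation was linear, between the two tested concentrations surrounding the appropriate level; five concentrations were tested over 48 hours in 96-well plates. GI50: concentration for 50% inhibition of growth.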 Activity calls are given as the source filed them. Cut-off read from the data, not from the text of the source: active = GI50 up to about 1.1 µM and inactive = higher.

Legend:
Experiment in all cases: NCI anticancer screen, dose series, 48 h
[1] = test system: TK-10
[2] = test system: NCI/ADR-RES
[3] = test system: U-251
[4] = test system: LOX IMVI
[5] = test system: 786-0
[6] = test system: OVCAR-4
[7] = test system: SNB-75
[8] = test system: UACC-257
[9] = test system: PC-3
[10] = test system: DU-145
[11] = test system: SK-OV-3
[12] = test system: MDA-MB-435
[13] = test system: SF-539
[14] = test system: SN12C
[15] = test system: Malme-3M
[16] = test system: HCC 2998
[17] = test system: HCT-15
[18] = test system: HL-60
[19] = test system: SR
[20] = test system: COLO 205

| Structure (SMILES) | GI50 [1] | GI50 [2] | GI50 [3] | GI50 [4] | GI50 [5] | GI50 [6] | GI50 [7] | GI50 [8] | GI50 [9] | GI50 [10] | GI50 [11] | GI50 [12] | GI50 [13] | GI50 [14] | GI50 [15] | GI50 [16] | GI50 [17] [µM] | GI50 [18] | GI50 [19] | GI50 [20] |
| --- | --- | --- | --- | --- | --- | --- | --- | --- | --- | --- | --- | --- | --- | --- | --- | --- | --- | --- | --- | --- |
| CCOC(=O)C(CCN1CCC2(CC1)C(=O)N(C)CN2c1ccccc1)C(=O)OCC | > 100 µM (inactive) | > 100 µM (inactive) | > 100 µM (inactive) | > 100 µM (inactive) | > 100 µM (inactive) | > 100 µM (inactive) | > 100 µM (inactive) | > 100 µM (inactive) | > 100 µM (inactive) | > 100 µM (inactive) | > 100 µM (inactive) | > 100 µM (inactive) | > 100 µM (inactive) | > 100 µM (inactive) | > 100 µM (inactive) | 57.7 µM (inactive) | > 100 | > 100 µM (inactive) | > 100 µM (inactive) | > 100 µM (inactive) |
| CN1CCC(CN2c3ccccc3Sc3ccccc32)C1 (stereo not given) [METHDILAZINE HYDROCHLORIDE] | 17.6 µM (inactive) | 15.2 µM (inactive) | 13.7 µM (inactive) | 15 µM (inactive) | 14.7 µM (inactive) | 13.9 µM (inactive) | 1.79 µM (inactive) | 11.8 µM (inactive) | 12.4 µM (inactive) | 17.8 µM (inactive) | 17.3 µM (inactive) | 10.1 µM (inactive) | 16.8 µM (inactive) | 15.3 µM (inactive) | 16.5 µM (inactive) | 10.1 µM (inactive) | 16.2 | 14.7 µM (inactive) | 2.7 µM (inactive) | 11.5 µM (inactive) |
| CCc1nc(N)nc(N)c1-c1ccc(NC)c([N+](=O)[O-])c1 | 28.2 µM (inactive) | 1.2 µM (inactive) | 0.631 µM (active) | 0.449 µM (active) | 0.558 µM (active) | 15.5 µM (inactive) | 10.8 µM (inactive) | 18 µM (inactive) | 0.804 µM (active) | 2.14 µM (inactive) | 28.7 µM (inactive) | 0.586 µM (active) | 1.47 µM (inactive) | 0.91 µM (active) | 24.8 µM (inactive) | 3.56 µM (inactive) | 0.398 | 0.308 µM (active) | 0.327 µM (active) | 4.84 µM (inactive) |
| O=C(O)c1nn(-c2ccc(Cl)cc2)c2c1C(=O)c1ccccc1C2=O | > 100 µM (inactive) | > 100 µM (inactive) | 55.7 µM (inactive) | > 100 µM (inactive) | > 100 µM (inactive) | > 100 µM (inactive) | 22.8 µM (inactive) | > 100 µM (inactive) | > 100 µM (inactive) | > 100 µM (inactive) | > 100 µM (inactive) | > 100 µM (inactive) | 30.2 µM (inactive) | > 100 µM (inactive) | 5.42 µM (inactive) | 43.1 µM (inactive) | > 100 | > 100 µM (inactive) | 21.2 µM (inactive) | > 100 µM (inactive) |
| O=C1C(CN2CCCC2)CCC1CN1CCCC1 (stereo not given) | 18.3 µM (inactive) | 23.9 µM (inactive) | > 100 µM (inactive) | 20.8 µM (inactive) | 15.8 µM (inactive) | 20.7 µM (inactive) | 17.9 µM (inactive) | 16.8 µM (inactive) | 23.7 µM (inactive) | 97.3 µM (inactive) | > 100 µM (inactive) | 17.6 µM (inactive) | 19.5 µM (inactive) | 26.7 µM (inactive) | 15.1 µM (inactive) | > 100 µM (inactive) | 17.7 | 2.42 µM (inactive) | 12.9 µM (inactive) | 5.71 µM (inactive) |
| Cc1ccc2nc(/C=N/c3ccccc3Cl)cc(C)c2c1 | 30.3 µM (inactive) | 16.8 µM (inactive) | 20.7 µM (inactive) | 8.61 µM (inactive) | 16.7 µM (inactive) | 34 µM (inactive) | 19.9 µM (inactive) | 15.8 µM (inactive) | 25.4 µM (inactive) | 46.7 µM (inactive) | 27.4 µM (inactive) | 12.7 µM (inactive) | 16.5 µM (inactive) | 12.2 µM (inactive) | 20.8 µM (inactive) | 47.3 µM (inactive) | 18.4 | 2.73 µM (inactive) | 2.81 µM (inactive) | 50.8 µM (inactive) |
| CC(=O)OCC1OC(OCCCOP(=O)(OCCC#N)OCC2OC(n3cnc4c(N)ncnc43)C(OC(=O)c3ccccc3)C2OC(=O)c2ccccc2)C(OC(C)=O)C(OC(C)=O)C1OC(C)=O (stereo not given) | > 100 µM (inactive) | > 100 µM (inactive) | > 100 µM (inactive) | > 100 µM (inactive) | > 100 µM (inactive) | > 100 µM (inactive) | > 75 µM (inactive) | > 100 µM (inactive) | > 100 µM (inactive) | > 100 µM (inactive) | > 100 µM (inactive) | > 100 µM (inactive) | > 100 µM (inactive) | > 100 µM (inactive) | 1.06 µM (active) | > 100 µM (inactive) | > 100 | > 100 µM (inactive) | > 100 µM (inactive) | > 100 µM (inactive) |
